Measured values: US9963703B2, “Compositions and methods for treating pancreatic cancer” (Autotelic LLC, priority 2016, dated 2018)
In the oligonucleotide strings, read from the 5' end, every base follows the letter of its sugar. An asterisk marks phosphorothioate; unmarked linkages are phosphodiester. Other units and linkages are bracketed, terminal groups are in braces. A string of capitals states the bases alone. d = 2'-deoxy (DNA)

Test system: Patients With Advanced Tumors Known to Overproduce TGFβ2
Assay: Phase I/II dose escalation study P-001, safety (MTD, DLT, adverse events)
Assay type: in vivo, human
Description: Over-expression of transforming growth factor-beta 2 (TGF-β2) is associated with poor prognosis and plays a key role for malignant progression of various tumors by inducing proliferation, metastasis, angiogenesis and immunosuppression. P-001 trial of trabedersen-Safety and Tolerability of AP 12009 (trabedersen), Administered I.V. in Patients With Advanced Tumors Known to Overproduce TGFβ2, was evaluated to determine if treatment with trabedersen primed the tumors to subsequent chemotherapy.
In the instant study, the primary objective was to determine the Maximum Tolerated Dose (MTD) and the Dose Limited Toxicity (DLT) of two cycles of trabedersen administered intravenously (i.v.) for either 7 days every other week (i.e. 7 days on/7 days off) or for 4 days every other week (4 days on/10 days off). The secondary objective included assessment of antitumor activity of trabedersen administered intravenously for either 7 days every other week (i.e. 7 days on/7 days off) or for 4 days every other week (4 days on/10 days off).
The escalation scheme of this study aimed to determinate the MTD of two cycles of trabedersen (so called ‘core study period’) administered as a continuous i.v. infusion for 7 days every other week (7-days-on/7-days-off) or for 4 days every other week (4-days-on/10-days-off).
In general, it was planned to enroll a cohort of at least 3 evaluable patients per treatment group. For each cohort, the safety data obtained until end of the core study period (period for DLT-assessment, Cycle 1 and Cycle 2) were assessed in an interim analysis and evaluated by a Data and Safety Monitoring Board (DSMB). […] If 2 of these 3 patients experienced a DLT, the number of evaluable patients for the subsequent treatment group was increased to 6 for further evaluation of toxicity. Patients who were withdrawn from the study due to adverse events (AEs) attributed to DLT by the treating clinician, were not replaced but were used to determine the MTD and to evaluate the safety of the study drug. If patients were withdrawn due to other reasons, they were replaced until the treatment group was complete.
The MTD was determined according to the following procedure: If 2 out of 3 patients of 1 cohort experienced a DLT, 3 more patients were enrolled in the same treatment group. If at least 1 of these additional 3 patients also met the toxicity criteria for a DLT, the MTD for two cycles was determined; otherwise the dose escalation was continued upon agreement with the DSMB. MTD for two cycles was then defined as the dose at which no more than 2 out of 3, or 2 out of 6 patients of the same treatment group experienced a DLT. This procedure was followed until the MTD was reached.
The safety population comprised of 61 patients, representing all patients for whom at least once a trabedersen infusion was started. According to the protocol, the MTD was determined according to the following procedure: if […] out of 3 patients of one cohort experience dose-limiting toxicity, 3 more patients were enrolled in the same treatment group. If at least 1 more patient of this second cohort met the toxicity criteria, MTD for two cycles has been determined (otherwise escalation was continued). MTD for two cycles was then defined as the dose at which no more than 2 out of 3 or 2 out of 6 patients of the same treatment group experienced DLT. […] In the case that 2 patients of the first cohort experienced DLTs that clearly indicated attainment of the MTD, the second cohort could also be omitted. The described procedure was pursued until the MTD is reached.

[1] = 240 mg/m^2/day, 7-days-on and 7-days-off schedule
[2] = 4-days-on and 10-days-off schedule
[3] = 4-days-on, 10-days off schedule (N = 44)
[4] = 7-days-on and 7-days-off schedule
[5] = 7-days-on, 7-days off schedule (N = 17)

trabedersen: TGF-beta2 specific phosphorothioate antisense oligodeoxynucleotide with the sequence 5′-CGGCATGTCTATTTTGTA-3′ (SEQ ID No: 1) (antisense dC*dG*dG*dC*dA*dT*dG*dT*dC*dT*dA*dT*dT*dT*dT*dG*dT*dA)
dose-limiting toxicity observed (140 mg/m^2/day, 4-days-on and 10-days-off schedule, one patient): Grade 3 upper gastrointestinal hemorrhage | DLT: cases of Grade 3 maculopapular rash [1]: 1 | DLT: cases of Grade 3 thrombocytopenia [1]: 2 | number of patients who experienced a DLT [1]: 3 | patients with TEAEs that led to treatment discontinuation, % [2]: 15.9% | patients with TEAEs that led to treatment discontinuation, number [2]: 7 | MTD (4-days-on and 10-days-off schedule, no MTD established, highest dose tested): > 330 mg/m^2/day | Any SAE: % of patients with SAE [3]: 40.9% | Any SAE: No. of SAEs [3]: 28 | Any SAE: No. of patients with SAE [3]: 18 | Ascites: No. of patients with SAE [3]: 0 | Cancer Pain: % of patients with SAE [3]: 4.5% | Cancer Pain: No. of SAEs [3]: 2 | Cancer Pain: No. of patients with SAE [3]: 2 | Catheter related Infection: % of patients with SAE [3]: 2.3% | Catheter related Infection: No. of SAEs [3]: 1 | Catheter related Infection: No. of patients with SAE [3]: 1 | Cholangitis: % of patients with SAE [3]: 6.8% | Cholangitis: No. of SAEs [3]: 3 | Cholangitis: No. of patients with SAE [3]: 3 | Cholestasis: % of patients with SAE [3]: 2.3% | Cholestasis: No. of SAEs [3]: 1 | Cholestasis: No. of patients with SAE [3]: 1 | GI hemorrhage: % of patients with SAE [3]: 2.3% | GI hemorrhage: No. of SAEs [3]: 2 | GI hemorrhage: No. of patients with SAE [3]: 1 | Pneumonia: No. of patients with SAE [3]: 0 | Upper GI hemorrhage: % of patients with SAE [3]: 2.3% | Upper GI hemorrhage: No. of SAEs [3]: 1 | Upper GI hemorrhage: No. of patients with SAE [3]: 1 | MTD [4]: 160 mg/m^2/day | patients with TEAEs that led to treatment discontinuation, % [4]: 41.2% | patients with TEAEs that led to treatment discontinuation, number [4]: 7 | Any SAE: % of patients with SAE [5]: 70.6% | Any SAE: No. of SAEs [5]: 28 | Any SAE: No. of patients with SAE [5]: 12 | Ascites: % of patients with SAE [5]: 17.6% | Ascites: No. of SAEs [5]: 3 | Ascites: No. of patients with SAE [5]: 3 | Cancer Pain: No. of patients with SAE [5]: 0 | Catheter related Infection: % of patients with SAE [5]: 11.8% | Catheter related Infection: No. of SAEs [5]: 2 | Catheter related Infection: No. of patients with SAE [5]: 2 | Cholangitis: % of patients with SAE [5]: 5.9% | Cholangitis: No. of SAEs [5]: 1 | Cholangitis: No. of patients with SAE [5]: 1 | Cholestasis: % of patients with SAE [5]: 5.9% | Cholestasis: No. of SAEs [5]: 1 | Cholestasis: No. of patients with SAE [5]: 1 | GI hemorrhage: % of patients with SAE [5]: 11.8% | GI hemorrhage: No. of SAEs [5]: 3 | GI hemorrhage: No. of patients with SAE [5]: 2 | Pneumonia: % of patients with SAE [5]: 17.6% | Pneumonia: No. of SAEs [5]: 3 | Pneumonia: No. of patients with SAE [5]: 3 | Upper GI hemorrhage: % of patients with SAE [5]: 5.9% | Upper GI hemorrhage: No. of SAEs [5]: 1 | Upper GI hemorrhage: No. of patients with SAE [5]: 1 | MTD (4 days on and days off regimen (N=27), not reached at highest dose): > 330 mg/m^2/d | MTD (7 days on and 7 days off regimen (N=11)): 160 mg/m^2/d | Any SAE: % of patients with SAE (Total (N = 61)): 49.2% | Any SAE: No. of SAEs (Total (N = 61)): 56 | Any SAE: No. of patients with SAE (Total (N = 61)): 30 | Ascites: % of patients with SAE (Total (N = 61)): 4.9% | Ascites: No. of SAEs (Total (N = 61)): 3 | Ascites: No. of patients with SAE (Total (N = 61)): 3 | Cancer Pain: % of patients with SAE (Total (N = 61)): 3.3% | Cancer Pain: No. of SAEs (Total (N = 61)): 2 | Cancer Pain: No. of patients with SAE (Total (N = 61)): 2 | Catheter related Infection: % of patients with SAE (Total (N = 61)): 4.9% | Catheter related Infection: No. of SAEs (Total (N = 61)): 3 | Catheter related Infection: No. of patients with SAE (Total (N = 61)): 3 | Cholangitis: % of patients with SAE (Total (N = 61)): 6.6% | Cholangitis: No. of SAEs (Total (N = 61)): 4 | Cholangitis: No. of patients with SAE (Total (N = 61)): 4 | Cholestasis: % of patients with SAE (Total (N = 61)): 3.3% | Cholestasis: No. of SAEs (Total (N = 61)): 2 | Cholestasis: No. of patients with SAE (Total (N = 61)): 2 | GI hemorrhage: % of patients with SAE (Total (N = 61)): 4.9% | GI hemorrhage: No. of SAEs (Total (N = 61)): 3 | GI hemorrhage: No. of patients with SAE (Total (N = 61)): 3 | Pneumonia: % of patients with SAE (Total (N = 61)): 4.9% | Pneumonia: No. of SAEs (Total (N = 61)): 3 | Pneumonia: No. of patients with SAE (Total (N = 61)): 3 | Upper GI hemorrhage: % of patients with SAE (Total (N = 61)): 3.3% | Upper GI hemorrhage: No. of SAEs (Total (N = 61)): 2 | Upper GI hemorrhage: No. of patients with SAE (Total (N = 61)): 2 | number of patients for whom a DLT was proclaimed (all cohorts, 2 pancreatic carcinoma, 2 colorectal cancer): 4 | patients with TEAEs that led to treatment discontinuation, % (all patients): 23.0% | patients with TEAEs that led to treatment discontinuation, number (all patients): 14 | total number of TEAEs that led to treatment discontinuation (all patients): 23 | patients with TEAEs that led to treatment discontinuation, % (colorectal cancer): 40.0% | patients with TEAEs that led to treatment discontinuation, number (colorectal cancer): 2 | daily dose of MTD (initial 7-days-on and 7-days-off schedule): approx. 4 mg/kg/day | patients with TEAEs that led to treatment discontinuation, % (melanoma): 15.8% | patients with TEAEs that led to treatment discontinuation, number (melanoma): 3 | patients with TEAEs that led to treatment discontinuation, % (pancreatic cancer): 24.3% | patients with TEAEs that led to treatment discontinuation, number (pancreatic cancer): 9
